Measured values from US8318769B2, “Substituted sulfonamide compounds” (Gruenethal GmbH, priority 2008, dated 2012).
Read-outs that look alike come from different tables or passages of the source.

Assays:
[1] = target: T1, human bradykinin 1 receptor (B1R) (Homo sapiens, UniProt P46663); assay: FLIPR Ca2+ assay, B1R antagonism, human; format: cell-based; settings: 10 μM test substance, CHO K1 cells with human B1R gene (hB1R cells), Lys-Des-Arg9-bradykinin at EC80, % inhibition compared with the maximum achievable inhibition; for inhibition at 10 µM: read-out: B1R antagonism, human [10 μM] % inhibition
T1 construct: expressed in transfected cells
T1 sequence (P46663 1-353): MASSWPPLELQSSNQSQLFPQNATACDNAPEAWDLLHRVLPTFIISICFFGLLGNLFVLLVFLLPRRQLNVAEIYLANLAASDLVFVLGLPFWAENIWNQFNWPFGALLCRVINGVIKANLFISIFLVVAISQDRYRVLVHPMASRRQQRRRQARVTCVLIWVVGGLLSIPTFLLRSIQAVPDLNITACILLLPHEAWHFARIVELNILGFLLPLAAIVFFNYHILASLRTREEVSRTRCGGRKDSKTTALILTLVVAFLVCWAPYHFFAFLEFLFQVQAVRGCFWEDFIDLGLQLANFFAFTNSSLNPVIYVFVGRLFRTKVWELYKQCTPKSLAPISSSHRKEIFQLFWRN
Summary of the method: (§1)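 Antagonism is given as % of maximum achievable suppression of agonist-evoked Ca2+ influx, measured by Fluo-4 peak fluorescence in FLIPR. Stable hB1R or rB1R CHO K1 lines received 10 μM compound for 10-20 min before EC80 Lys-Des-Arg9-bradykinin (human) or Des-Arg9-bradykinin (rat).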

[2] = target: T2, bradykinin 1 receptor (B1R) of the rat (Rattus norvegicus, UniProt P97583); assay: FLIPR Ca2+ assay, B1R antagonism, rat; format: cell-based
T2 construct: expressed in transfected cells
T2 sequence (P97583 1-337): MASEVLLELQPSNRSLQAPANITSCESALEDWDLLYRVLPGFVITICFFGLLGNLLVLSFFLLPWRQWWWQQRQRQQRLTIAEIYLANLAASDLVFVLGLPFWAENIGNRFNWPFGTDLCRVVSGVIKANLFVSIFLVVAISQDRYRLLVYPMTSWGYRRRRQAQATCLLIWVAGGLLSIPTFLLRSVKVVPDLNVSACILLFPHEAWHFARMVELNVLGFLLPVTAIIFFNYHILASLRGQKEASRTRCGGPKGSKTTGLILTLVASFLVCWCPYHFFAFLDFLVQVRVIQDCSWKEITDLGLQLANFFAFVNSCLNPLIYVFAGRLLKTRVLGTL
Summary of the method: as §1

[3] = CHO-K1, 10 μM test substance, CHO K1 cells with rat B1R gene (rB1R cells), Des-Arg9-bradykinin at EC80, % inhibition compared with the maximum achievable inhibition, read-out: B1R antagonism, rat [10 μM] % inhibition

inhibition at 10 µM [1] [%]	inhibition at 10 µM [2, 3] [%]	SMILES	other results
100	102	COc1cc(C)c(S(=O)(=O)N2c3ccccc3CCC2COCC(=O)N2CCC(OCCN3CCCC3)(c3cccnc3)CC2)c(C)c1 (centres unmarked) [Example 101, 2-[[1-[(4-methoxy-2,6-dimethyl-phenyl)sulfonyl]-1,2,3,4-tetrahydro-quinolin-2-yl]-methoxy]-1-[4-pyridin-3-yl-4-(2-pyrrolidin-1-yl-ethoxy)-piperidin-1-yl]-ethanone]	
100	102	COc1cc(C)c(S(=O)(=O)N2CCCC[C@H]2COCC(=O)N2CCC(OCCn3cncn3)(c3cccnc3)CC2)c(C)c1 [Example 59, 2-[[(2S)-1-[(4-methoxy-2,6-dimethyl-phenyl)sulfonyl]-piperidin-2-yl]-methoxy]-1-[4-pyridin-3-yl-4-[2-(1H-[1,2,4]triazol-1-yl)-ethoxy]-piperidin-1-yl]-ethanone]	
		O=C(COCC1CCCCN1S(=O)(=O)c1ccccc1C(F)(F)F)N1CCC(OCCN2CCCC2)(c2cccnc2)CC1 (centres unmarked) [Example 117, 1-[4-pyridin-3-yl-4-(2-pyrrolidin-1-yl-ethoxy)-piperidin-1-yl]-2-[[1-[[2-(trifluoromethyl)-phenyl]sulfonyl]-piperidin-2-yl]-methoxy]-ethanone]	B1R antagonism, human [10 μM] % inhibition [1]: 100%; B1R antagonism, rat [10 μM] % inhibition ([2]; 10 μM test substance, CHO K1 cells with rat B1R gene (rB1R cells), Des-Arg9-bradykinin at EC80, % inhibition compared with the maximum achievable inhibition, 10 µM): 103%
85	61	Cc1cc(S(=O)(=O)N2CCCCC2CCC(=O)N2CCC(OCCN3CCN(C)CC3)(c3cccnc3)CC2)c(C)cc1Cl (centres unmarked) [Example 31, 3-(1-(4-chloro-2,5-dimethylphenylsulfonyl)piperidin-2-yl)-1-(4-(2-(4-methylpiperazin-1-yl)ethoxy)-4-(pyridin-3-yl)piperidin-1-yl)propan-1-one]	
31	18	CN1CCN(CCOC2(c3cccnc3)CCN(C(=O)CC3CCCCN3S(=O)(=O)c3cccc(C(F)(F)F)c3)CC2)CC1 (centres unmarked) [Example 30, 1-(4-(2-(4-methylpiperazin-1-yl)ethoxy)-4-(pyridin-3-yl)piperidin-1-yl)-2-(1-(3-(trifluoromethyl)phenylsulfonyl)piperidin-2-yl)ethanone]	
100	102	COc1cc(C)c(S(=O)(=O)N(CCOCC(=O)N2CCC(OCCN3CCCC3)(c3ccncc3)CC2)c2ccccc2)c(C)c1 [Example 100, 4-methoxy-2,6-dimethyl-N-[2-[2-oxo-2-[4-pyridin-4-yl-4-(2-pyrrolidin-1-yl-ethoxy)-piperidin-1-yl]-ethoxy]-ethyl]-N-phenyl-benzenesulfonic acid amide]	
98	100	COc1cc(C)c(S(=O)(=O)N(C)CCOCC(=O)N2CCC(OCCN3CCCC3)(c3cccnc3)CC2)c(C)c1 [Example 21, 4-methoxy-N,2,6-trimethyl-N-(2-(2-oxo-2-(4-(pyridin-3-yl)-4-(2-(pyrrolidin-1-yl)ethoxy)piperidin-1-yl)ethoxy)ethyl)benzenesulfonamide]	
100	101	COc1cc(C)c(S(=O)(=O)N2CCCC[C@H]2COCC(=O)N2CCC(OCCN3CCC3)(c3cccnc3)CC2)c(C)c1 [Example 61, 1-[4-[2-(azetidin-1-yl)-ethoxy]-4-pyridin-3-yl-piperidin-1-yl]-2-[[(2S)-1-[(4-methoxy-2,6-dimethyl-phenyl)sulfonyl]-piperidin-2-yl]-methoxy]-ethanone]	
86	72	Cc1cc(S(=O)(=O)N2CCCCC2CCC(=O)N2CCC(OCCN3CCCC3)(c3cccnc3)CC2)c(C)cc1Cl (centres unmarked) [Example 25, 3-(1-(4-chloro-2,5-dimethylphenylsulfonyl)piperidin-2-yl)-1-(4-(pyridin-3-yl)-4-(2-(pyrrolidin-1-yl)ethoxy)piperidin-1-yl)propan-1-one]	
70	60	O=C(CCCC1CCCCN1S(=O)(=O)c1ccccc1C(F)(F)F)N1CCC(OCCN2CCCC2)(c2cccnc2)CC1 (centres unmarked) [Example 8, 1-(4-(pyridin-3-yl)-4-(2-(pyrrolidin-1-yl)ethoxy)piperidin-1-yl)-4-(1-(2-(trifluoromethyl)phenylsulfonyl)piperidin-2-yl)butan-1-one]	
91	99	Cc1cccc(Cl)c1S(=O)(=O)N1c2ccccc2OCC1COCC(=O)N1CCC(OCCN2CCCC2)(c2cccc(F)c2)CC1 (centres unmarked) [Example 109, 2-[[4-[(2-chloro-6-methyl-phenyl)sulfonyl]-3,4-dihydro-2H-[1,4]benzoxazin-3-yl]-methoxy]-1-[4-(3-fluorophenyl)-4-(2-pyrrolidin-1-yl-ethoxy)-piperidin-1-yl]-ethanone]	
74	98	CN1CCN(CCOC2(c3cccnc3)CCN(C(=O)COCC3CCc4ccccc4N3S(=O)(=O)c3ccc(Cl)c(Cl)c3)CC2)CC1 (centres unmarked) [Example 38, 2-((1-(3,4-dichlorophenylsulfonyl)-1,2,3,4-tetrahydroquinolin-2-yl)methoxy)-1-(4-(2-(4-methylpiperazin-1-yl)ethoxy)-4-(pyridin-3-yl)piperidin-1-yl)ethanone]	
100	99	COc1cc(C)c(S(=O)(=O)N2CCCCC2COCCC(=O)N2CCC(OCCN3CCCC3)(c3cccc(F)c3)CC2)c(C)c1 (centres unmarked) [Example 121, 1-[4-(3-fluorophenyl)-4-(2-pyrrolidin-1-yl-ethoxy)-piperidin-1-yl]-3-[[1-[(4-methoxy-2,6-dimethyl-phenyl)sulfonyl]-piperidin-2-yl]-methoxy]-propan-1-one]	
100	101	O=C(COCC1CCCCN1S(=O)(=O)c1ccccc1C(F)(F)F)N1CCC(OCCN2CCCC2)(c2cccnc2)CC1 (centres unmarked) [Example 116, 1-[4-pyridin-3-yl-4-(2-pyrrolidin-1-yl-ethoxy)-piperidin-1-yl]-2-[[1-[[2-(trifluoromethyl)-phenyl]sulfonyl]-piperidin-2-yl]-methoxy]-ethanone]	
103	52	O=C(CC(NS(=O)(=O)c1ccc2ccccc2c1)c1ccccc1)N1CCC(OCCN2CCCCC2)(c2cccnc2)CC1 (centres unmarked) [Example 11, N-(3-oxo-1-phenyl-3-(4-(2-(piperidin-1-yl)ethoxy)-4-(pyridin-3-yl)piperidin-1-yl)propyl)naphthalene-2-sulfonamide]	
103	102	COc1cc(C)c(S(=O)(=O)N2CCCCC2COCC(=O)N2CCC(OCCN3CCCCC3)(c3cccnc3)CC2)c(C)c1 (centres unmarked) [Example 14, 2-((1-(4-methoxy-2,6-dimethylphenylsulfonyl)piperidin-2-yl)methoxy)-1-(4-(2-(piperidin-1-yl)ethoxy)-4-(pyridin-3-yl)piperidin-1-yl)ethanone]	
100	103	COc1cc(C)c(S(=O)(=O)N2c3ccccc3OCC2COCC(=O)N2CCC(OCCN3CCCC3)(c3ccncc3)CC2)c(C)c1 (centres unmarked) [Example 108, 2-[[4-[(4-methoxy-2,6-dimethyl-phenyl)sulfonyl]-3,4-dihydro-2H-[1,4]benzoxazin-3-yl]-methoxy]-1-[4-pyridin-4-yl-4-(2-pyrrolidin-1-yl-ethoxy)-piperidin-1-yl]-ethanone]	
		COc1cc(C)c(S(=O)(=O)N2CCCCC2CCCC(=O)N2CCC(OCCN3CCCC3)(c3cccnc3)CC2)c(C)c1 (centres unmarked) [Example 2, 4-(1-(4-methoxy-2,6-dimethylphenylsulfonyl)piperidin-2-yl)-1-(4-(pyridin-3-yl)-4-(2-(pyrrolidin-1-yl)ethoxy)piperidin-1-yl)butan-1-one]	B1R antagonism, human [10 μM] % inhibition ([1]; 10 µM): 97%; inhibition at 10 µM ([2]; CHO-K1, read-out: B1R antagonism, rat [10 μM] % inhibition): 99%
100	102	COc1cc(C)c(S(=O)(=O)N(C)CCOCC(=O)N2CCC(OCCN3CCCC3)(c3ccncc3)CC2)c(C)c1C [Example 115, 4-methoxy-N,2,3,6-tetramethyl-N-[2-[2-oxo-2-[4-pyridin-4-yl-4-(2-pyrrolidin-1-yl-ethoxy)-piperidin-1-yl]-ethoxy]-ethyl]-benzenesulfonic acid amide]	
